Laboratory results as given in patent US20220304976A1, “Method of simultaneously treating viral disease caused coronavirus, its variants and mutants using a pharmaceutical micronutrient composition” (priority 2021, published 2022).
Read-outs that look alike come from different tables or passages of the source.

Tests used:
hACE2 receptor = biological target: T1, hACE2 receptor (Homo sapiens, UniProt Q9BYF1); assay type: binding; conditions: for Binging with ACE2 (% of control ± SD): Table 3
T1 construct: purchased GenScript

[1] = biological target: T2, RBD of SARS-CoV-2 spike protein binding to hACE2 receptor (Severe acute respiratory syndrome coronavirus 2, UniProt P0DTC2); assay: biochemical; conditions: for inhibition at 100 µg/mL: 100 μg/ml, read-out: efficacy in inhibiting RBD binding to hACE2
T2 construct: purchased GenScript

IL-6 secretion = assay: Interleukin 6 (IL-6) assay in HSAEpC (ELISA); assay type: cell-based, human; conditions: LPS 5 mcg/ml
Method: Interleukin 6 (IL-6) assay: Human Small Airways Epithelial Cells (HSAEpC) were supplied by ATCC and cultured in Small Airways Epithelial Cells culture medium (ATCC). SAEC cells were seeded in six-well plates covered with collagen at 6 passage and grown to confluent layer. […] After 72 hours incubation conditioned media were collected and IL-6 content was measured using R&D Systems Human IL6 ELISA assay in accordance with the manufacture's protocol. Results were calculated with Microsoft Excel software and presented as a percentage of unsupplemented controls (an average of three repetitions+/−standard deviation).

[2] = test system: SARS-CoV-2 spike protein pseudo-typed virions; assay type: cell-based
[3] = test system: SARS-CoV-2 spike protein pseudo-typed virions; assay type: cell-based; remark: listed apart in the source

T1 sequence (Q9BYF1 18-740): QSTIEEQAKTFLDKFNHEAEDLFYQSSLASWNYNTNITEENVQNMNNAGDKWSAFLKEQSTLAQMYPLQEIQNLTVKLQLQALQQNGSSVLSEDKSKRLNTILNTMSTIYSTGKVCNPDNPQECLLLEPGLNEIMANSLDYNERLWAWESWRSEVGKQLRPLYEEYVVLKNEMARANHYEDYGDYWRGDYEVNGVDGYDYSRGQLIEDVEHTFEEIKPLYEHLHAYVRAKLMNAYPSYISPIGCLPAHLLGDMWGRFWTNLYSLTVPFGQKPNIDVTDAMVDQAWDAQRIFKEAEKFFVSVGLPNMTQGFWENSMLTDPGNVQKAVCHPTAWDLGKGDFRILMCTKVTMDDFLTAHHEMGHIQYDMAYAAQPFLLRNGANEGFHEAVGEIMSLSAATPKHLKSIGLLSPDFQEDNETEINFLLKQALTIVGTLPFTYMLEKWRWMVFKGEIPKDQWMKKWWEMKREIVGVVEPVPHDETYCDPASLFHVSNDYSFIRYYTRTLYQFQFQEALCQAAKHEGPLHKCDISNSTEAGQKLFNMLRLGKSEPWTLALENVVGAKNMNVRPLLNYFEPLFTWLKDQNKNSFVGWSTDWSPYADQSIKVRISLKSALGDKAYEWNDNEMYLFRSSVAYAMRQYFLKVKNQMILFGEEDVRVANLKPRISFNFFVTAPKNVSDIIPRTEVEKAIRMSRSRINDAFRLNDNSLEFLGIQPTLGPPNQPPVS

Compound | Binging with ACE2 (% of control ± SD) (hACE2 receptor; tested at 0.1 mg/ml) | further results
COc1ccc2cc3[n+](cc2c1OC)CCc1cc2c(cc1-3)OCO2 [Berberine] | 9.4 ± 2.4 % of control | –
C[C@@H]1O[C@@H](OC[C@H]2O[C@@H](Oc3c(-c4ccc(O)c(O)c4)oc4cc(O)cc(O)c4c3=O)[C@H](O)[C@@H](O)[C@@H]2O)[C@H](O)[C@H](O)[C@H]1O [Rutin] | 4.8 ± 2.0 % of control | –
O=C(O)c1cc(O)c(O)c(O)c1 [Gallic acid] | 6.5 ± 1.3 % of control | –
D-limonene | 6.4 ± 1.5 % of control | Binding with RBD (% of control ± SD) [1]: 27.2 ± 6.4 % of control
Oc1ccc(/C=C/c2cc(O)cc(O)c2)cc1 [Trans-resveratrol] | 5.5 ± 2.4 % of control | –
O=C1O[C@H]2[C@@H]3OC(=O)c4cc(O)c(O)c(O)c4-c4c(O)c(O)c5oc(=O)c6c(c(O)c(O)c7oc(=O)c4c5c76)-c4c(cc(O)c(O)c4O)C(=O)OC[C@H]3OC(O)[C@@H]2OC(=O)c2cc(O)c(O)c(O)c2-c2c1cc(O)c(O)c2O (mixture of isomers) [Punicalagin] | 5.4 ± 2.3 % of control | –
L-sulforaphane | – | Binding to RBD (% of control ± DS) [1]: 30.2 ± 3.6 % of control; Binging to ACE2 (% of control ± DS) (hACE2 receptor): 6.7 ± 1.5 % of control
lipopolysaccharide | – | increase of IL-6 secretion (IL-6 secretion): 43%
O=c1c(O)c(-c2ccc(O)c(O)c2)oc2cc(O)cc(O)c12 [Quercetin] | 7.8 ± 3.3 % of control | –
Procyanidin B2 | 5.8 ± 2.7 % of control | Binding with RBD (% of control ± SD) [1]: 31.1 ± 3.6 % of control
O=c1c(O)c(-c2ccc(O)c(O)c2)oc2cc(O)ccc12 [Fisetin] | 6.0 ± 2.4 % of control | –
CC(=O)c1c(O)c(C)c(O)c2c1OC1=CC(=O)C(C(C)=O)C(=O)C12C (stereo not drawn) [Usnic acid] | 5.7 ± 1.7 % of control | –
(+)-epigallocatechin gallate | – | Binding to RBD (% of control ± DS) [1]: 87.5 ± 6.8 % of control; Binging to ACE2 (% of control ± DS) (hACE2 receptor; Table 4, tested at 0.1 mg/ml): 5.9 ± 2.0 % of control
(+)-gallocatechin | – | Binding to RBD (% of control ± DS) [1]: 69.5 ± 2.8 % of control; Binging to ACE2 (% of control ± DS) (hACE2 receptor; Table 4, tested at 0.1 mg/ml): 5.7 ± 1.6 % of control
O=C1C[C@@H](c2ccc(O)cc2)Oc2cc(O)cc(O)c21 [Naringenin] | 8.3 ± 1.6 % of control | Binding with RBD (% of control ± SD) [1]: 20 ± 5.1 % of control
(−)-catechin gallate | – | Binding to RBD (% of control ± DS) [1]: 37.4 ± 4.7 % of control; Binging to ACE2 (% of control ± DS) (hACE2 receptor; Table 4, tested at 0.1 mg/ml): 8.6 ± 1.5 % of control
O=C(/C=C/c1ccc(O)c(O)c1)O[C@@H]1C[C@](O)(C(=O)O)C[C@@H](O)[C@H]1O [Chlorogenic acid] | 4.7 ± 1.6 % of control | –
Hesperidin | 8.3 ± 2.3 % of control | Binding with RBD (% of control ± SD) [1]: 90.3 ± 3.8 % of control
COc1c(O)cc2oc(-c3ccc(O)cc3)cc(=O)c2c1O [Hispidulin] | 7.4 ± 2.1 % of control | –
O=c1cc(-c2ccc(O)cc2)oc2cc(O)cc(O)c12 [Apigenin] | 8.3 ± 1.9 % of control | –
Theaflavine-3′3-digallate | – | inhibition of pseudo-typed virion binding to hACE2/A549 (in words) [2]: similarly inhibited binding; concentration from which inhibition of transduction is statistically significant [3]: 10 µg/mL
O=c1cc(-c2ccccc2)oc2cc(O)c(O)c(O)c12 [Baicalein] | 7.4 ± 1.4 % of control | –
COc1ccc([C@@H]2CC(=O)c3c(O)cc(O)cc3O2)cc1O [Hesperetin] | 4.9 ± 2.7 % of control | –
O=C(OC[C@H]1O[C@@H](OC(=O)c2cc(O)c(O)c(OC(=O)c3cc(O)c(O)c(O)c3)c2)[C@H](OC(=O)c2cc(O)c(O)c(OC(=O)c3cc(O)c(O)c(O)c3)c2)[C@@H](OC(=O)c2cc(O)c(O)c(OC(=O)c3cc(O)c(O)c(O)c3)c2)[C@@H]1OC(=O)c1cc(O)c(O)c(OC(=O)c2cc(O)c(O)c(O)c2)c1)c1cc(O)c(O)c(OC(=O)c2cc(O)c(O)c(O)c2)c1 [Tannic acid] | 7.2 ± 2.3 % of control | –
Oc1cc(O)cc(O)c1 [Phloroglucinol] | 5.9 ± 3.4 % of control | –
COc1ccc(Cc2nccc3cc(OC)c(OC)cc23)cc1OC [Papaverine, reference compound] | 6.5 ± 3.7 % of control | –

Compound | Binging with ACE2 (% of control ± SD) (hACE2 receptor; tested at 0.1 mg/ml) | further results
O=c1c(O)c(-c2ccc(O)cc2)oc2cc(O)cc(O)c12 [Kaempferol] | 6.2 ± 2.5 % of control | –
Schisandrin | 5.1 ± 2.7 % of control | Binding with RBD (% of control ± SD) [1]: 22.4 ± 3.3 % of control
COc1cc(/C=C/C(=O)CC(=O)/C=C/c2ccc(O)c(OC)c2)ccc1O [Curcumin] | 4.6 ± 2.4 % of control | affinity in binding to the RBD-spike protein of SARS-CoV-2 (in words) [1]: exhibited the highest affinity; inhibition at 100 µg/mL [1]: 100%; binding to the ACE2 receptor itself (in words) (hACE2 receptor): moderate binding; inhibition of pseudo-typed virion binding to hACE2/A549 (in words) [2]: similarly inhibited binding; concentration from which inhibition of transduction is statistically significant [3]: 5.0 µg/mL
O=C(O)[C@H]1O[C@@H](Oc2cc3oc(-c4ccccc4)cc(=O)c3c(O)c2O)[C@H](O)[C@@H](O)[C@@H]1O [Baicalin] | 4.9 ± 1.9 % of control | –
O=c1cc(-c2ccc(O)c(O)c2)oc2cc(O)cc(O)c12 [Luteolin] | 4.8 ± 1.6 % of control | –
CC(C)c1cc2c(c(O)c1O)[C@@]1(C(=O)O)CCCC(C)(C)[C@@H]1CC2 [Carnosic acid] | 6.9 ± 4.1 % of control | –
Oc1ccc2c(c1)OC[C@]1(O)Cc3cc(O)c(O)cc3[C@H]21 [Brazilin] | 4.6 ± 2.2 % of control | affinity in binding to the RBD-spike protein of SARS-CoV-2 (in words) [1]: exhibited the highest affinity; inhibition at 100 µg/mL [1]: 100%; binding to the ACE2 receptor itself (in words) (hACE2 receptor): neither brazilin, nor theaflavin-3,3′-digallate displayed binding affinity; inhibition of pseudo-typed virion binding to hACE2/A549 (in words) [2]: similarly inhibited binding; concentration from which inhibition of transduction is statistically significant [3]: 10 µg/mL
O[C@H]1[C@H](O)[C@@H](O)CN2CC[C@H](O)[C@H]12 [Castanospermine] | 5.5 ± 3.1 % of control | –
Urolithin A | 8.8 ± 1.6 % of control | Binding with RBD (% of control ± SD) [1]: 31.1 ± 4.6 % of control
O=c1c(O)c(-c2ccc(O)cc2O)oc2cc(O)cc(O)c12 [Morin] | 5.6 ± 3.1 % of control | –
Procyanidin B3 | 7.8 ± 2.7 % of control | Binding with RBD (% of control ± SD) [1]: 32.3 ± 3.7 % of control
C=C(C)[C@@H]1CCC(C)=C[C@H]1c1c(O)cc(CCCCC)cc1O [Cannabidiol, reference compound] | 5.8 ± 2.0 % of control | –
O=c1c(-c2ccc(O)cc2)coc2cc(O)cc(O)c12 [Genistein] | 9.4 ± 2.7 % of control | –
C[C@@H]1O[C@@H](O[C@H]2[C@H](Oc3cc(O)c4c(c3)O[C@H](c3ccc(O)cc3)CC4=O)O[C@H](CO)[C@@H](O)[C@@H]2O)[C@H](O)[C@H](O)[C@H]1O [Naringin] | 3.7 ± 1.1 % of control | –
C=C1CC[C@@H]2[C@](C)(CO)[C@H](O)CC[C@@]2(C)[C@@H]1C/C=C1/C(=O)OC[C@H]1O [Andrographolide] | – | Binding to RBD (% of control ± DS) [1]: 22.1 ± 2.5 % of control; Binging to ACE2 (% of control ± DS) (hACE2 receptor; Table 4, tested at 0.1 mg/ml): 5.6 ± 2.4 % of control
COc1cc(/C=C/c2ccc(O)cc2)cc(OC)c1 [Pterostilbene] | 9.4 ± 2.5 % of control | –
O=C(/C=C/c1ccc(O)c(O)c1)O[C@H](Cc1ccc(O)c(O)c1)C(=O)O [Rosmarinic acid] | 7.9 ± 1.8 % of control | –
Palmatine | 8.5 ± 2.7 % of control | Binding with RBD (% of control ± SD) [1]: 40.4 ± 6.1 % of control
O=C(O)CC(O)C(=O)O (stereo not drawn) [Malic acid] | 5.8 ± 1.4 % of control | –
O=c1c(O)cc([C@H]2Oc3cc(O)cc(O)c3C[C@H]2O)cc2c([C@H]3Oc4cc(O)cc(O)c4C[C@H]3O)cc(O)c(O)c12 [Theafalvin] | – | Binding to RBD (% of control ± DS) [1]: 27.3 ± 1.4 % of control; Binging to ACE2 (% of control ± DS) (hACE2 receptor; Table 4, tested at 0.1 mg/ml): 7.9 ± 1.9 % of control
(−)-gallocatechin gallate | – | Binding to RBD (% of control ± DS) [1]: 75.4 ± 5.6 % of control; Binging to ACE2 (% of control ± DS) (hACE2 receptor; Table 4, tested at 0.1 mg/ml): 7.5 ± 1.7 % of control
O=C(O)[C@H]1O[C@@H](Oc2cc3oc(-c4ccc(O)cc4)cc(=O)c3c(O)c2O)[C@H](O)[C@@H](O)[C@@H]1O [Scutellarin] | 7.5 ± 1.7 % of control | –
(−)-gallocatechin | – | Binding to RBD (% of control ± DS) [1]: 73.5 ± 6.7 % of control; Binging to ACE2 (% of control ± DS) (hACE2 receptor; Table 4, tested at 0.1 mg/ml): 3.9 ± 2.3 % of control
CC1(C)[C@@H](O[C@H]2O[C@H](C(=O)O)[C@@H](O)[C@H](O)[C@H]2O[C@@H]2O[C@H](C(=O)O)[C@@H](O)[C@H](O)[C@H]2O)CC[C@]2(C)[C@H]3C(=O)C=C4[C@@H]5C[C@@](C)(C(=O)O)CC[C@]5(C)CC[C@@]4(C)[C@]3(C)CC[C@@H]12 [Glycyrrhizic acid] | – | Binging to ACE2 (% of control ± DS) (hACE2 receptor; Table 4, tested at 0.1 mg/ml): 10.1 ± 2.8 % of control
O=c1c(O)c(-c2cc(O)c(O)c(O)c2)oc2cc(O)cc(O)c12 [Myricetin] | 5.6 ± 2.1 % of control | –
